Reference: US4528289A, “Corynantheine derivates, processes for their preparation, and their use” (Dr. Willmar Schwabe GmbH & Co., priority 1982, dated 1985)
Structures can show the parent of a compound that is named as a salt.

What was measured:
[1] = hygroscopicity of crystals; assay type: physicochemical; details: crystals dried at 110° C. for 8 hours at oil pump vacuum
Protocol: For analysis, the product is again recrystallised from methanol by the addition of diethyl ether. […] 187° C. (decomp. from 158° C., subl. of the base); [α]D^20 =-26° (c=2 in methanol).

[2] = tested on: "head twitch" syndrome caused by 5-hydroxytryptophane; assay: inhibition of "head twitch" syndrome caused by 5-hydroxytryptophane on mice; assay type: in vivo; details: concluded from head twitch test
[3] = tested on: systolic blood pressure of spontaneously hypertonic rats; assay: chronological course of blood pressure decrease in spontaneously hypertonic rats; assay type: in vivo, rat
From the text: (§1) The blood pressure-lowering action of the compound THCN according to the present invention and of DHCN was investigated on spontaneously hypertonic rats after oral administration and compared with that of ajmalicine. The method thereby used for the measurement of the systolic blood pressure and of the heart rate on rats is described in Arzneimittel-Forschung, 18, 1285-1287/1968. Before commencement of the experiments, the animals were familiarised with the measurement procedure.
(§2) In a further series of experiments, the chronological course of the blood pressure lowering was investigated. For this purpose, spontaneously hypertonic rats were treated with 10 mg./kg. DHCN and with 5 or 10 mg./kg. THCN per os and in each case 6 or 12 animals of the treated group were measured at definite times after the treatment.

mice [4] = assay: body temperature-lowering action on mice after oral administration; assay type: in vivo; details: 5 to 20 mg/kg, dosage-dependent
[5] = tested on: heart rate of spontaneously hypertonic rats; assay: chronological course of heart rate of spontaneously hypertonic rats; assay type: in vivo, rat; set-up: heart rate at time t: unit not given here
From the text: as §1, §2

mice [6] = assay: acute toxicity, LD50 (Litchfield and Wilcoxon) on mice; assay type: in vivo; details: i.v., i.p. and oral LD50, mice
From the text: (§3) The toxicity of the compounds according to the present invention can be seen from the LD50 values given in the following Table 8 for intravenous, intraperitoneal and oral administration.

[7] = as above; assay type: in vivo; details: mouse, in vivo, mice
From the text: as §3

[8] = tested on: heart rate of spontaneously hypertonic rats; assay: heart rate of spontaneously hypertonic rats after oral administration; assay type: in vivo, rat; details: 2 h, tetrahydrocorynantheine
From the text: as §1
(§4) In a first series of experiments, the systolic blood pressure and the heart rate were investigated 2 hours after the oral administration of the test substances in the form of their hydrochlorides. The substances were suspended in 0.2% agar and administered in a volume of 10 ml./kg. It follows therefrom that all three substances lower the blood pressure in a dosage-dependent manner.

[9] = tested on: systolic blood pressure of spontaneously hypertonic rats; assay: regression analysis of the dosage-activity relationship (blood pressure lowering); assay type: in vivo, rat; details: compared with DHCN and ajmalicine
From the text: as §1, §4
The calculation of the regression lines gives, in all three cases, a statistically significant correlation between dosage and degree of blood pressure lowering (cf. the following Table 4). For ajmalicine, in the case of a dosage of 56 mg./kg., the lowering reached a maximum of about 18%, which could not be exceeded with dosages of up to 100 mg./kg.

[10] = tested on: stereotypy brought about by apomorphine; assay: potentiation of apomorphine stereotypy in mice; assay type: in vivo; details: oral, 10 to 20 mg/kg
mice [11] = assay: sedating action on mice after oral administration; assay type: in vivo; details: 5 to 20 mg/kg, dosage-dependent
[12] = stability towards acids and other agents; assay type: physicochemical
CHCl3 arrhythmia = assay: inhibition of CHCl3 arrhythmia on mice, i.p.; assay type: in vivo
From the text: (§5) The antiarrhythmic effectiveness of DHCN and THCN was investigated on mice and rats.

[13] = tested on: systolic blood pressure of spontaneously hypertonic rats; assay: systolic blood pressure of spontaneously hypertonic rats after oral administration; assay type: in vivo, rat; details: 2 h, tetrahydrocorynantheine
From the text: as §1, §4

[14] = tested on: aconitine-induced arrythmias; assay: protection against aconitine-induced arrhythmias in urethane-narcotised rats, i.v.; assay type: in vivo; details: 2 to 5 mg/kg (THCN)
From the text: as §5

SMILES: CC[C@H]1CN2CCc3c([nH]c4ccccc34)[C@@H]2C[C@@H]1C(COC)C(=O)OC (stereo partly drawn) [Example 9, tetrahydrocorynantheine hydrochloride]
- hygroscopicity (in words) [1]: slightly hygroscopic

SMILES: CC[C@H]1CN2CCc3c([nH]c4ccccc34)[C@@H]2C[C@@H]1C(COC)C(=O)OC (stereo partly drawn) [THCN, tetrahydrocorynantheine]
- central antiserotoninergic action (in words) [2]: central antiserotoninergic action
- percentage decrease of blood pressure ([3]; 5 mg/kg p.o., 10 min.): 11.1%
- percentage decrease of blood pressure ([3]; 5 mg/kg p.o., 20 min.): 13.8%
- percentage decrease of blood pressure ([3]; 5 mg/kg p.o., 40 min.): 12.8%
- percentage decrease of blood pressure ([3]; 5 mg/kg p.o., 80 min.): 13.8%
- percentage decrease of blood pressure ([3]; 5 mg/kg p.o., 2 h.): 8.1%
- percentage decrease of blood pressure ([3]; 5 mg/kg p.o., 4 h.): -0.2%
- percentage decrease of blood pressure ([3]; 5 mg/kg p.o., 6 h.): 4.0%
- percentage decrease of blood pressure ([3]; 10 mg/kg p.o., 10 min.): 13.5%
- percentage decrease of blood pressure ([3]; 10 mg/kg p.o., 20 min.): 29.3%
- percentage decrease of blood pressure ([3]; 10 mg/kg p.o., 40 min.): 27.8%
- percentage decrease of blood pressure ([3]; 10 mg/kg p.o., 80 min.): 23.0%
- percentage decrease of blood pressure ([3]; 10 mg/kg p.o., 2 h.): 14.4%
- percentage decrease of blood pressure ([3]; 10 mg/kg p.o., 4 h.): 14.0%
- percentage decrease of blood pressure ([3]; 10 mg/kg p.o., 6 h.): 15.9%
- blood pressure lowering action compared (in words) ([3]; DHCN 10 mg/kg vs THCN 5 mg/kg p.o.): the same action
- time of maximum blood pressure lowering ([3]; DHCN 10 mg/kg, THCN 5 mg/kg p.o.): about 40 minutes
- blood pressure after the maximum (in words) ([3]; DHCN 10 mg/kg, THCN 5 mg/kg p.o., after about 40 minutes): the blood pressure again increases to the initial value
- blood pressure lowering action (in words) ([3]; THCN 10 mg/kg p.o.): a stronger action
- time of maximum blood pressure lowering ([3]; THCN 10 mg/kg p.o.): 20 min
- maximum blood pressure lowering ([3]; THCN 10 mg/kg p.o., 20 minutes after administration): 30%
- blood pressure after 6 hours (in words) ([3]; THCN 10 mg/kg p.o., 6 hours): still distinctly below the initial value
- blood pressure-lowering action compared with ajmalicine (in words) ([3]; oral administration): clearly stronger and longer-lasting blood pressure-lowering action
- body temperature-lowering action (in words) (mice [4]): body temperature-lowering action
- heart rate at time t ([5]; 5 mg/kg p.o., 10 min.): 504
- heart rate at time t ([5]; 5 mg/kg p.o., 20 min.): 492
- heart rate at time t ([5]; 5 mg/kg p.o., 40 min.): 499
- heart rate at time t ([5]; 5 mg/kg p.o., 80 min.): 503
- heart rate at time t ([5]; 5 mg/kg p.o., 2 h.): 508
- heart rate at time t ([5]; 5 mg/kg p.o., 4 h.): 502
- heart rate at time t ([5]; 5 mg/kg p.o., 6 h.): 489
- heart rate at time t ([5]; 10 mg/kg p.o., 10 min.): 519
- heart rate at time t ([5]; 10 mg/kg p.o., 20 min.): 518
- heart rate at time t ([5]; 10 mg/kg p.o., 40 min.): 499
- heart rate at time t ([5]; 10 mg/kg p.o., 80 min.): 520
- heart rate at time t ([5]; 10 mg/kg p.o., 2 h.): 519
- heart rate at time t ([5]; 10 mg/kg p.o., 4 h.): 519
- heart rate at time t ([5]; 10 mg/kg p.o., 6 h.): 503
- heart rate change (in words) ([5]; DHCN 10 mg/kg, THCN 10 mg/kg, on the border of statistical significance): an increase is to be observed
- heart rate change (in words) ([5]; THCN 5 mg/kg): does not change
- toxicities compared (in words) (mice [6]): almost the same
- LD50 ([7]; ip): 133 mg/kg
- LD50 ([7]; iv): 14.1 mg/kg
- LD50 ([7]; po): 283 mg/kg
- heart rate, subsequent value ([8]; 5 mg/kg p.o.): 508 ± 7 beats/min.
- heart rate, Δ ([8]; 5 mg/kg p.o.): 6 ± 12 beats/min.
- heart rate, Δ % ([8]; 5 mg/kg p.o.): 1.2 ± 7.1%
- heart rate, subsequent value ([8]; 10 mg/kg p.o.): 519 ± 9 beats/min.
- heart rate, Δ ([8]; 10 mg/kg p.o.): 21 ± 11 beats/min.
- heart rate, Δ % ([8]; 10 mg/kg p.o.): 4.2 ± 3.3%
- heart rate, subsequent value ([8]; 18 mg/kg p.o.): 495 ± 6 beats/min.
- heart rate, Δ ([8]; 18 mg/kg p.o.): 13 ± 12 beats/min.
- heart rate, Δ % ([8]; 18 mg/kg p.o.): 3.3 ± 2.8%
- heart rate, subsequent value ([8]; 30 mg/kg p.o.): 493 ± 10 beats/min.
- heart rate, Δ ([8]; 30 mg/kg p.o.): 22 ± 27 beats/min.
- heart rate, Δ % ([8]; 30 mg/kg p.o.): 4.7 ± 6.6%
- heart rate, subsequent value ([8]; 40 mg/kg p.o.): 472 ± 14 beats/min.
- heart rate, Δ ([8]; 40 mg/kg p.o.): -1 ± 29 beats/min.
- heart rate, Δ % ([8]; 40 mg/kg p.o.): 1.0 ± 6.6%
- dosage activity curve (in words) [9]: steeper
- strength of action (in words) ([9]; higher dosages): stronger in higher dosages
- apomorphine stereotypy (in words) [10]: potentiated the stereotypy
- central dopaminergic-stimulating property (in words) [10]: central dopaminergic-stimulating property
- sedating action (in words) (mice [11]): sedating
- stability compared with dihydrocorynantheine (in words) [12]: substantially more stable than dihydrocorynantheine
- stability towards acids and other agents (in words) [12]: astonishingly stable towards acids and other agents
- antiarrhythmic effectiveness, chloroform arrythmias (in words) (CHCl3 arrhythmia): dosage-dependently inhibited the arrythmias caused by chloroform
- inhibition in % of CHCl3 arrhythmia (CHCl3 arrhythmia; 10 mg/kg): 10%
- inhibition in % of CHCl3 arrhythmia (CHCl3 arrhythmia; 15 mg/kg): 60%
- inhibition in % of CHCl3 arrhythmia (CHCl3 arrhythmia; 25 mg/kg): 90%
- systolic blood pressure, subsequent value ([13]; 5 mg/kg p.o.): 178 ± 4 mm Hg
- systolic blood pressure, Δ ([13]; 5 mg/kg p.o.): -15 ± 3 mm Hg
- systolic blood pressure, Δ % ([13]; 5 mg/kg p.o.): -7.7 ± 1.8%
- systolic blood pressure, subsequent value ([13]; 10 mg/kg p.o.): 168 ± 5 mm Hg
- systolic blood pressure, Δ ([13]; 10 mg/kg p.o.): -28 ± 6 mm Hg
- systolic blood pressure, Δ % ([13]; 10 mg/kg p.o.): -14.3 ± 4.7%
- systolic blood pressure, subsequent value ([13]; 18 mg/kg p.o.): 165 ± 13 mm Hg
- systolic blood pressure, Δ ([13]; 18 mg/kg p.o.): -33 ± 11 mm Hg
- systolic blood pressure, Δ % ([13]; 18 mg/kg p.o.): -16.5 ± 5.8%
- systolic blood pressure, subsequent value ([13]; 30 mg/kg p.o.): 146 ± 5 mm Hg
- systolic blood pressure, Δ ([13]; 30 mg/kg p.o.): -43 ± 5 mm Hg
- systolic blood pressure, Δ % ([13]; 30 mg/kg p.o.): -21.9 ± 3.9%
- systolic blood pressure, subsequent value ([13]; 40 mg/kg p.o.): 132 ± 9 mm Hg
- systolic blood pressure, Δ ([13]; 40 mg/kg p.o.): -74 ± 10 mm Hg
- systolic blood pressure, Δ % ([13]; 40 mg/kg p.o.): -35.7 ± 4.7%
- antiarrhythmic effectiveness, aconitine-induced arrythmias (in words) [14]: protects against aconitine-induced arrythmias
